Measured values as given in patent publication US8273340B2, “Methods and compositions for attracting or repelling cockroaches” (The United States of America, as represented by the …, priority 2008, dated 2012).

Tested on: Male cockroaches (Blattela germanica)
Experiment: Y-tube olfactometer bioassay of controlled release pellets aged in a fume hood
Type: in vivo
Conditions: for Percent Response: mean of 3 replicates; for activity in the olfactometer (in words): charcoal as the absorbent, after one hour in the fume hood
Excerpt: Olfactometer Bioassay: The Y-tube bioassay apparatus was similar to that described by Vander Meer et al. (J. Chem. Ecol., 14: 825-838 (1988)). Compressed air (breathing-air quality) was passed into the two choice arms at 0.2 l/min for a total flow of 0.4 l/min. Flow rates were adjusted and controlled by two flow meters (Omega Engineering, Inc.). All tubing carrying the air was either copper or Teflon. Prior to evaluating treatment samples, a positive standard was put through the bioassay procedure. The standard was initially an attractive food material (grape flavoring concentrate used at 0.33%) and later 0.5% (w/v) methyl tiglate, one of the compounds of the present invention, in white, light mineral oil (Aldrich Chemical Co.). […] Test samples (10.0 μl) and the solvent blank (mineral oil, 10.0 μl) were applied to filter paper strips (0.3×1.0 cm, Whatman No. 1) and then each was placed into one of the two choice arms. Male cockroaches (Blattela germanica) were prepared for their introduction into the olfactometer by placing them in a Teflon tube (3 cm×0.8 cm) that had one end blocked with a piece of copper mesh screen. The open end of tube was closed with a lightly attached piece of tape. The cockroaches were introduced individually by removing the tape and quickly inserting the Teflon tube into the entrance arm of the olfactometer. […] The initial choice of the cockroach was recorded. The cockroach was removed and the process was repeated 10 times with the same test and blank samples. The 10 choices usually required less than 5 minutes to complete. After each set of 10 cockroaches had made their choice, the olfactometer was rinsed with acetone, dried, and reassembled for the next test. Each sample was retested with the same cockroaches, but with the sample and control in reverse positions. The sum of the results from the two tests represented one replicate. This procedure minimized bias inherent in the apparatus. A null hypothesis of equal numbers of cockroaches in each arm was tested with chi-square analysis. […] Results in-between were neutral.
Controlled Release Formulations: Four esters found to be significant cockroach attractants were selected for evaluation in controlled release formulations-developed by BioGuard, Inc. Six controlled release formulations from BioGuard were evaluated in the olfactometer. The attractants were methyl tiglate, butyl hexanoate, propyl propanoate, and butyl heptanoate. The attractants were absorbed to either coconut shell charcoal pellets or potassium substituted crystalline zeolite pellets, and then coated with water soluble methylcellulose. The powdered methyl cellulose was dissolved in 80° C. water until saturation, cooled to approx 25° C., the pellets immersed into the solution for a 30 sec, and removed and rapidly air dried with 30° C. pre-dried air. The end products were pellets (charcoal=2 mm×4 mm dia.; molecular sieve=4 mm×1.5 mm dia.). […] A single pellet was used in place of the filter paper described above. The control side was left blank.

[1] = Charcoal absorbent, methylcellulose coated pellet, aged 1 hour in fume hood
[2] = Molecular Sieve absorbent, methylcellulose coated pellet, aged 1 hour in fume hood

SMILES	Percent Response [1] [%]	Percent Response [2] [%]	activity in the olfactometer (in words)	Percent Response (charcoal controlled release formulation, aged 24 hours in fume hood) [%]	Percent Response (charcoal controlled release formulation, aged 48 hours in fume hood) [%]
CCCOC(=O)CC [Propyl Propanoate]	65.0	50.0	significantly active		
C/C=C(\C)C(=O)OC [methyl tiglate, methyl ester of tiglic acid (trans-2-methyl-2-butenoic acid (methyl tiglate))]	76.6	50.0	significantly active	66.7	61.6
